Assay results from publication PMC9318862, “Cytotoxic Effects on Breast Cancer Cell Lines of Chalcones Derived from a Natural Precursor and Their Molecular Docking Analysis” (Molecules, 2022).
Where two headings read alike, the source gives them in different places.

Assays:
[1] = system: MDA-MB-231 cells; assay: Cytotoxic assay, IC50 in MDA-MB-231 cells; format: cell-based; details: Homo sapiens, mean ± SD, read-out: IC50 Cell Lines MDA-MB-231
Procedure: (§1) The cytotoxic activity of all the synthesized chalcones was tested against breast cancer cell lines using an MTT cell proliferation assay. All compounds were tested in vitro at 10 and 100 µM using the cell viability assay in MCF-7 for 24 h in normoxia (Table 1). Firstly, the cytotoxic effect of the chalcone compounds modified in ring B and with an unsubstituted ring A was tested (compounds 3–8). […] Secondly, compounds with modifications in the A and B rings (9–13) were tested.
(§2) The cell culture methodology was used with modifications. Three human breast cancer cell lines were used for this study: MCF-7 (ATCC® HTB-22™), ZR-75-1 (ATCC® CRL-1500™), MDA-MB-231 (ATCC® HTB-26™), and the non-tumorigenic MCF-10F (ATCC® CRL-10318™) cell lines. Cells were cultured in specific media according to ATCC recommendations. The incubation condition was established at 37 °C, a complete humid atmosphere, 5% CO2 and 95% O2.
(§3) The cytotoxic effect of the chalcone compounds was assessed in MCF-10F cells in a dose- and time-dependent manner. Cells (1 × 10^4 and 4 × 10^4) cultured under normoxic conditions were seeded in 24-well plates in quadruplicate and incubated for 4 days until 70% confluence. After this incubation period, cells were exposed to concentrations of the synthesized compounds dissolved in ethanol (50%) at concentrations ranging from 0 to 96.8 µg/mL (dissolved in 0.5% DMSO). Doxorubicin was used as the control drug, and for all data a p < 0.05 value was considered statistically significant. Cell viability was assessed using a neutral red uptake assay after 24 h of treatment.

[2] = system: MCF-10F cells; assay: Cytotoxic assay, IC50 in non-tumorigenic MCF-10F cells; format: cell-based, human; details: MCF-10F non-tumorigenic cells, mean ± SD, read-out: IC50 Cell Lines MCF-10F
Procedure: as §2, §3

[3] = system: MCF-7 cells; assay: Cytotoxic assay, IC50 in MCF-7 cells; format: cell-based; details: Homo sapiens, MCF7, mean ± SD, read-out: IC50 Cell Lines MCF-7
[4] = system: ZR-75-1 cells; assay: Cytotoxic assay, IC50 in ZR-75-1 cells; format: cell-based; details: Homo sapiens, mean ± SD, read-out: IC50 Cell Lines ZR-75-1
[5] = system: MCF-7 cells; assay: Cell viability of MCF-7 cells after treatment at 10 and 100 µM (MTT cell proliferation assay, 24 h, normoxia); format: cell-based; details: Homo sapiens, mean ± SD; for viability at 10 µM: MCF7, 10 µM; for viability at 100 µM: MCF7, 100 µM
Procedure: as §1
as §2, with “[…]. […]” for “O2.”

[6] = system: MCF-7 cells; parameters: method as in PMID 27814565; details: read-out: IC50 on the growth of the MCF-7 cells; cited from earlier work

Structure (SMILES): CC(C)=CCc1cc(C(=O)/C=C/c2ccccc2)ccc1O [Compound 9]
- IC50 [1]: > 80 µM
- IC50 ([2]; Homo sapiens, MCF-10F): > 80 µM
- IC50 [3]: > 80 µM
- IC50 [4]: > 80 µM
- viability at 10 µM [5]: 93.8 ± 7.9%
- viability at 100 µM [5]: 82.5 ± 6.1%

Structure (SMILES): CC(=O)c1ccc(O)c(CC=C(C)C)c1 [Compound 1b]
- IC50 [1]: 74 ± 8.72 µM
- IC50 ([2]; Homo sapiens, MCF-10F): 79.5 ± 9.9 µM
- IC50 [3]: 79.4 ± 12.2 µM
- IC50 [4]: 61.6 ± 14.1 µM

Structure (SMILES): COc1cc(OC)c(OC)cc1/C=C/C(=O)c1ccc(O)c(CC=C(C)C)c1 [Compound 13]
- IC50 [1]: 18.1 ± 1.65 µM
- IC50 ([2]; Homo sapiens, MCF-10F): 95.1 ± 1.97 µM
- IC50 [2]: 75.1 ± 12 µM
- IC50 [3]: 3.3 ± 0.92 µM
- IC50 [4]: 8.75 ± 2.01 µM
- viability at 10 µM [5]: 32.4 ± 4.5%
- viability at 100 µM [5]: 3.1 ± 0.4%

Structure (SMILES): COc1cc(/C=C/C(=O)c2ccc(O)c(CC=C(C)C)c2)ccc1O [Compound 12, (E)-1-(4-hydroxy-3-(3-methylbut-2-en-1-yl)phenyl)-3-(4-hydroxy-3-methoxyphenyl)prop-2-en-1-one]
- IC50 [1]: 6.12 ± 0.84 µM
- IC50 ([2]; Homo sapiens, MCF-10F): 95.8 ± 1.52 µM
- IC50 [2]: 75.8 ± 11.5 µM
- IC50 [3]: 4.19 ± 1.04 µM
- IC50 [4]: 9.4 ± 1.74 µM
- viability at 10 µM [5]: 10.3 ± 0.6%
- viability at 100 µM [5]: 3.6 ± 0.9%

Structure (SMILES): COc1cccc2c1C(=O)c1c(O)c3c(c(O)c1C2=O)C[C@@](O)(C(=O)CO)C[C@@H]3O[C@H]1C[C@H](N)[C@H](O)[C@H](C)O1 [Doxorubicin, reference compound]
- IC50 [1]: 47.6 ± 5.74 µM
- IC50 ([2]; Homo sapiens, MCF-10F): 83.9 ± 8.99 µM
- IC50 [3]: 111 ± 8.95 µM
- IC50 [4]: 79.8 ± 11 µM
- viability at 10 µM [5]: 49.3 ± 2.2%
- viability at 100 µM [5]: 57.6 ± 2.9%

Structure (SMILES): O=C(/C=C/c1ccc2c(c1)OCO2)c1ccccc1 [Compound 7]
- IC50 [1]: > 80 µM
- IC50 ([2]; Homo sapiens, MCF-10F): > 80 µM
- IC50 [3]: > 80 µM
- IC50 [4]: > 80 µM
- viability at 10 µM [5]: 43.5 ± 3.4%
- viability at 100 µM [5]: 38.6 ± 4.3%

Structure (SMILES): COc1ccc(/C=C/C(=O)c2ccc(O)c(CC=C(C)C)c2)cc1 [Compound 10]
- IC50 [1]: 78 ± 4.34 µM
- IC50 ([2]; Homo sapiens, MCF-10F): > 80 µM
- IC50 [3]: > 80 µM
- IC50 [4]: > 80 µM
- viability at 10 µM [5]: 73.7 ± 6.7%
- viability at 100 µM [5]: 62.3 ± 7.6%

Structure (SMILES): CC(C)=CCc1cc(C(=O)/C=C/c2ccc(N(C)C)cc2)ccc1O [Compound 11]
- IC50 [1]: 72.3 ± 2.33 µM
- IC50 ([2]; Homo sapiens, MCF-10F): 78.4 ± 21.3 µM
- IC50 [3]: > 80 µM
- IC50 [4]: 78.2 ± 6.87 µM
- viability at 10 µM [5]: 42 ± 4.3%
- viability at 100 µM [5]: 42.4 ± 3.9%

Structure (SMILES): C=C(C)C(O)Cc1c(O)ccc(C(=O)/C=C/c2ccc(O)c(CC=C(C)C)c2)c1O (stereo not shown) [Paratocarpin E]
- IC50 [6]: 19.6 µM

Structure (SMILES): COc1cc(OC)c(OC)cc1/C=C/C(=O)c1ccccc1 [Compound 8]
- IC50 [1]: > 80 µM
- IC50 ([2]; Homo sapiens, MCF-10F): > 80 µM
- IC50 [3]: > 80 µM
- IC50 [4]: > 80 µM
- viability at 10 µM [5]: 100 ± 12.6%
- viability at 100 µM [5]: 94.4 ± 11.6%

Structure (SMILES): COc1ccc(/C=C/C(=O)c2ccccc2)cc1 [Compound 4]
- IC50 [1]: > 80 µM
- IC50 ([2]; Homo sapiens): > 80 µM
- IC50 [3]: > 80 µM
- IC50 [4]: > 80 µM
- viability at 10 µM [5]: 74.5 ± 10.3%
- viability at 100 µM [5]: 55.1 ± 5.1%

Structure (SMILES): O=C(/C=C/c1ccccc1)c1ccccc1 [Compound 3]
- IC50 [1]: > 80 µM
- IC50 ([2]; Homo sapiens, MCF-10F): > 80 µM
- IC50 [3]: > 80 µM
- IC50 [4]: > 80 µM
- viability at 10 µM [5]: 81.3 ± 9.4%
- viability at 100 µM [5]: 65.2 ± 5.7%

Structure (SMILES): COc1cc(/C=C/C(=O)c2ccccc2)ccc1O [Compound 6]
- IC50 [1]: 52 ± 4.53 µM
- IC50 ([2]; Homo sapiens, MCF-10F): 72.6 ± 10.3 µM
- IC50 [3]: 21.6 ± 2.71 µM
- IC50 [4]: 43.2 ± 6.58 µM
- viability at 10 µM [5]: 47 ± 4.9%
- viability at 100 µM [5]: 4.9 ± 0.6%

Structure (SMILES): CN(C)c1ccc(/C=C/C(=O)c2ccccc2)cc1 [Compound 5]
- IC50 [1]: 79.8 ± 9.31 µM
- IC50 ([2]; Homo sapiens, MCF-10F): > 80 µM
- IC50 [3]: > 80 µM
- IC50 [4]: 76.5 ± 12.6 µM
- viability at 10 µM [5]: 47.6 ± 3.2%
- viability at 100 µM [5]: 52.4 ± 4.3%
